Measured values taken from US5401724A, “Therapeutic treatment of chronic myelogenous leukemia by administration of 2-chloro-2'-deoxy adenosine” (priority 1994, dated 1995).
Values belong to the molecule of their own block, whether it stands above or below them.

Assays:
[1] = pH 1, 37 degrees C.; cited from earlier work
[2] = test system: chronic myelogenous leukemia; experiment: Hematological remission in patients with stable phase CML treated with 2-CdA (Example 1); assay type: in vivo, human
Method: (§1) Each course was repeated every 28 days until the maximum hematological remission response of the treatment was achieved. The median age of the patients was 60 years, with a range of 52 to 75 years. There were 3 males and 2 females. A median of 2 courses of treatment was administered, with a range of 1 to 4 courses.
The median follow-up was 3.2 months, with a range from 1.0 to 5.7 months.

[3] = test system: total circulating peripheral blood granulocytes; experiment: Effect of 2-CdA on total circulating peripheral blood granulocytes in a patient with CML (Example 2); assay type: in vivo, human
Method: as §1

granulocytes [4] = experiment: Effects of 2-CdA on granulocyte counts in two non-CML (multiple sclerosis) patients (Example 3); assay type: in vivo, human
Text: Those results are illustrated and discussed hereinafter in Example 3.
Granulocyte counts were obtained from two patients who were receiving 2-CdA in the treatment of a non-leukemic disease, multiple sclerosis. These patients therefore had normal granulocytes.

[5] = test system: delayed-type hypersensitivity; experiment: Oral and IP effects on delayed-type hypersensitivity (DTH) to ovalbumin (Example 5, first study); assay type: in vivo, guinea pig; conditions: for effectiveness when given orally: without the protection of an enteric coating (2-CdA), preliminary in vivo studies; for inhibition of swelling compared to saline control: 24 and 48 hours after ovalbumin challenge
Method: (§2) Delayed-type hypersensitivity (DTH) is a cell-mediated immune response that typically takes longer than 12 hours to develop. In the guinea pig, a DTH reaction to an antigen can be established by first immunizing the animal with the antigen in an adjuvant such as Freund's complete adjuvant. Subsequent intradermal injection of the antigen causes no change for at least 10 hours, after which there is a gradual increase in erythema and swelling in response to antigen injection. This response peaks about at about 24 hours after challenge, then gradually subsides.
(§3) Histologically, the inflammatory response is characterized by intense inundation of the site with mononuclear cells, of which about half are lymphocytes and the other half monocytes. DTH is therefore an indicator of a monocyte-mediated immune reaction.
In one study, guinea pigs were sensitized to ovalbumin in adjuvant. […] The animals were then injected with ovalbumin intradermally to elicit the DTH response. The mean area of the swelling size was measured for each animal (nine or ten animals were treated for each protocol).

[6] = test system: delayed-type hypersensitivity; experiment: Effects of different dosages of 2-CdA on DTH to ovalbumin (Example 5, second study); assay type: in vivo, guinea pig; conditions: for inhibition of swelling compared to saline control: 24 and 48 hours post-challenge, p <0.01 by Student's t-test
Method: as §2, §3
Three days after treatment, the animals were challenged with ovalbumin intradermally. The areas of the skin lesions were measured at 6, 24, and 48 hours after challenge.

CEM, wild type [7] = experiment: cells; conditions: Homo sapiens, 120 h, read-out: ID50
Text: (§4) ^1 Concentration that produced 50 percent reduction in all numbers

[8] = test system: CEM, deoxyeytidine kinase deficient; experiment: cells; conditions: Homo sapiens, 120 h, read-out: ID50
Text: as §4

[9] = test system: CEM, Increased 5'-nucleoside; experiment: cells; conditions: Homo sapiens, 120 h, read-out: ID50
Text: as §4

[10] = test system: DHL9, Increased ribonucleotide reduction; experiment: cells; conditions: Homo sapiens, 120 h, read-out: ID50
Text: as §4

[11] = test system: Peripheral blood lymphocytes; experiment: cells; conditions: Homo sapiens, Lymphocyte, 120 h, read-out: ID50
Text: as §4

Monocytes [12] = experiment: cells; conditions: Homo sapiens, Monocyte, 120 h, read-out: ID50
Text: as §4

CFU-GM cells = conditions: 100 nM; cited from earlier work
CML in blast crisis = conditions: Phase I, cited from earlier work
neutrophils = conditions: chronic lymphocytic leukemia; serum levels less than 10 nM; in most cases; cited from earlier work
granulocytes [13] = conditions: hairy cell leukemia, cited from earlier work
[14] = test system: Primitive burst-forming unit-erythroid (pBFU-E) cells; conditions: read-out: IC50 (concentration required to inhibit 50 percent of growth); cited from earlier work
[15] = test system: Mature BFU-E (mBFU-E) cells; conditions: read-out: IC50 (concentration required to inhibit 50 percent of growth); cited from earlier work
[16] = test system: colony forming unit-erythroid (CFU-E) cells; conditions: read-out: IC50 (concentration required to inhibit 50 percent of growth); cited from earlier work
[17] = test system: Colony forming unit-granulocyte macrophage (CFU-GM) cells; conditions: read-out: IC50 (concentration required to inhibit 50 percent of growth); cited from earlier work
CEM, wild type [18] = test system: CEM, wild type
Text: as §4

[19] = test system: CEM, Increased 5'-nucleoside
Text: as §4

[20] = test system: DHL9, Increased ribonucleotide reduction
Text: as §4

[21] = test system: Peripheral blood lymphocytes
Text: as §4

Monocytes [22] = test system: Monocytes
Text: as §4

SB (B cell line) = experiment: cells; conditions: Homo sapiens
Method: (§5) Seven different cell lines were treated with varying concentrations of 2-chloro-9,1'-beta-2'-deoxy-2'-fluoro-D-arabinofuranosyladenine (CAFdA) to determine percent viability. CAFdA concentrations ranging from 0 to about 260 nM were used to treat each cell line in vitro.

K562 (myeloid cell line) = experiment: cells; conditions: Homo sapiens
Method: as §5

CEM (T cell line) = experiment: cells; conditions: Homo sapiens
Text: (§6) Of the other five cell lines, two were T cell lines, one called CEM and the other Molt-4, and the remaining three were monocyte-like cell lines, designated THP-1, U937 and HL-60, respectively.

Molt-4 (T cell line) = experiment: cells; conditions: Homo sapiens
Text: as §6

[23] = test system: THP-1 (monocyte-like cell line); experiment: cells; conditions: Homo sapiens
Text: as §6

[24] = test system: U937 (monocyte-like cell line); experiment: cells; conditions: Homo sapiens, U-937
Text: as §6

[25] = test system: HL-60 (monocyte-like cell line); experiment: cells; conditions: Homo sapiens
Text: as §6

[26] = test system: chronic myelogenous leukemia; conditions: cited from earlier work; for bone marrow cells with the translocation: marrow of treated patients
[27] = 1 mg/kg, intraperitoneal, p <0.01 by Student's t-test

Molecule: Nc1ncnc2c1ncn2[C@@H]1O[C@H](CO)C[C@@H]1F [2'-fluoro-2',3'-dideoxyarabinose]
stability [1]: stable

Molecule: Nc1ncnc2c1ncn2[C@@H]1O[C@H](CO)C[C@H]1F [2'-fluoro-2',3'-dideoxyribose]
stability [1]: stable

Molecule: Nc1nc(Cl)nc2c1ncn2[C@H]1C[C@H](O)[C@@H](CO)O1 [2-CdA, 2-chloro-2'-deoxyadenosine]
toxicity attributable to 2-CdA ([2]; 0.1 mg/kg per day continuous i.v. infusion for 7 days, 1 to 4 courses): No toxicity attributable to 2-CdA was encountered
hematological remission upon follow-up, Patient 4 ([2]; 1 course, prior hydroxyurea and α-interferon, follow-up 1.5 months): complete hematological remission
hematological remission upon follow-up, Patient 5 ([2]; 2 courses, prior hydroxyurea, follow-up 1.0 months): complete hematological remission
hematological remission upon follow-up, Patient 2 ([2]; 2 courses, prior hydroxyurea, follow-up 3.0 months): complete hematological remission
hematological remission upon follow-up, Patient 3 ([2]; 3 courses, prior hydroxyurea and α-interferon, follow-up 3.2 months): complete hematological remission
hematological remission upon follow-up, Patient 1 ([2]; 4 courses, prior hydroxyurea, follow-up 5.7 months): complete hematological remission
complete hematological remissions (normalization of peripheral leukocyte counts, platelet counts, and resolution of splenomegaly) ([2]; 5 patients, 0.1 mg/kg per day continuous i.v. infusion for 7 days, repeated every 28 days, median 2 courses): All five patients obtained complete hematological remissions
median follow-up (all patients continuing in hematologic remission) ([2]; 5 patients, range 1.0 to 5.7 months): 3.2 months
Philadelphia chromosome at follow-up ([2]; all patients): persistence of the Philadelphia chromosome
hematologic remission at follow-up, all patients ([2]; median follow-up 3.2 months): All patients continue to be in hematologic remission
granulocyte count ([3]; second course, day 5): 27,724 /μl
decrease from the granulocyte count at day zero ([3]; second course, day 13): > 99%
granulocyte count ([3]; second course, day 13): 210 µL⁻¹
granulocyte count ([3]; second course, day 17): 690 µL⁻¹
granulocyte count ([3]; second course, day zero (start of therapy)): 34,831 /μl
granulocyte count ([3]; third course, day 5, unit not given): 5,676 /μl
decrease from the initial granulocyte level ([3]; third course, day 14): approximately 98%
granulocyte count ([3]; third course, day 14, unit not given): 270 µL⁻¹
lower than the initial granulocyte count ([3]; third course, day 17): 95%
granulocyte count ([3]; third course, day 17, unit not given): 525 µL⁻¹
granulocyte count ([3]; third course, day zero, unit not given): 11,060 /μl
granulocyte counts after several courses (granulocytes [4]; multiple sclerosis patients, about 0.1 mg/kg/day, seven day continuous infusion): substantially unchanged
effect on the granulocyte count (granulocytes [4]; two multiple sclerosis patients): did not affect the granulocyte count
inhibition of swelling compared to control animals [5, 27]: significant inhibition of swelling
effect on DTH swelling, oral route ([5]; 1 mg/kg, oral, without enteric coating): ineffective
effectiveness when given orally ([5]; oral): ineffective
inhibition of swelling compared to saline control ([6]; 0.1 mg/kg): effective at inhibiting swelling
inhibition of swelling compared to saline control ([6]; 1 mg/kg): effective at inhibiting swelling
areas of swelling, 0.1 vs 1.0 mg/kg ([6]; 0.1 and 1.0 mg/kg): substantially the same
areas of swelling compared to dexamethasone-treated animals ([6]; 0.1 and 1.0 mg/kg 2-CdA vs dexamethasone 5 mg/kg): slightly less than the value obtained with dexamethasone
IC50 (CEM, wild type [7]): 21 nM
IC50 [8]: 716000 nM
IC50 [9]: 60 nM
IC50 [10]: 4000 nM
IC50 [11]: 15 nM
IC50 (Monocytes [12]): 22 nM
reduction of CFU-GM growth (CFU-GM cells): 60%
detectable tumor (CML in blast crisis; another of two patients): loss of detectable tumor in another patient
blast count (CML in blast crisis; one of two patients): decrease in blast count in one patient
neutrophil count (neutrophils): increase in neutrophil count
neutropenia (granulocytes [13]): transient neutropenia
granulocyte counts (granulocytes [13]; transient): under 500 per microliter
IC50 [14]: 19 nM
IC50 [15]: 38 nM
IC50 [16]: 56 nM
IC50 [17]: 16 nM

IC50 (CEM, wild type [7]): 67 nM
IC50 [8]: 716000 nM
IC50 [9]: 126 nM
IC50 [10]: 6000 nM
IC50 [11]: 18 nM
IC50 (Monocytes [12]): 47 nM
Molecule: Nc1nc(Cl)nc2c1ncn2[C@@H]1O[C@H](CO)[C@@H](O)[C@@H]1F [CAFdA, 2-chloro-9,1'-beta-2'-deoxy-2'-fluoro-D-arabinofuranosyladenine]
inhibition of swelling compared to saline control [5, 27]: significant inhibition of swelling
inhibition of swelling compared to saline control ([5]; 1 mg/kg, oral, p <0.01 by Student's t-test): significant inhibition of swelling
effectiveness when given orally ([5]; oral): effective
CAFdA/2-CdA (ID50 ratio) (CEM, wild type [18]): 3.1
CAFdA/2-CdA (ID50 ratio) [19]: 2.1
CAFdA/2-CdA (ID50 ratio) [20]: 15.
CAFdA/2-CdA (ID50 ratio) [21]: 1.9
CAFdA/2-CdA (ID50 ratio) (Monocytes [22]): 2.1
viability at 0.26 µM (SB (B cell line)): 90%
viability at 0.26 µM (K562 (myeloid cell line)): 40%
viability at 0.05 µM (CEM (T cell line)): ≤ 60%
viability at 0.06 µM (CEM (T cell line)): < 20%
viability at 0.13 µM (CEM (T cell line)): < 10%
viability at 0.06 µM (Molt-4 (T cell line)): < 20%
viability at 0.13 µM (Molt-4 (T cell line)): < 10%
viability at 0.05 µM [23]: ≤ 60%
viability at 0.06 µM [23]: < 20%
viability at 0.13 µM [23]: < 10%
viability at 0.06 µM [24]: < 20%
viability at 0.13 µM [24]: < 10%
viability at 0.05 µM [25]: ≤ 60%
viability at 0.06 µM [25]: < 20%
viability at 0.13 µM [25]: < 10%

Molecule: CS(=O)(=O)OCCCCOS(C)(=O)=O [busulfan]
serious complication ("busulfan lung") ([26]; CML treatment): bronchopulmonary dysplasia with pulmonary fibrosis
bone marrow cells with the translocation [26]: still contains a predominance of cells with the translocation

Molecule: C[C@@H]1C[C@H]2[C@@H]3CCC4=CC(=O)C=C[C@]4(C)[C@@]3(F)[C@@H](O)C[C@]2(C)[C@@]1(O)C(=O)CO [dexamethasone, reference compound]
inhibition of swelling compared to saline control ([5]; 5 mg/kg, intraperitoneal, p <0.01 by Student's t-test): significant inhibition of swelling
inhibition of swelling compared to saline control ([5]; 5 mg/kg, oral, p <0.01 by Student's t-test): significant inhibition of swelling
inhibition of swelling compared to saline control ([6]; 5 mg/kg): effective at inhibiting swelling

Molecule: NC(=O)NO [hydroxyurea]
bone marrow cells with the translocation [26]: still contains a predominance of cells with the translocation

Molecule: α-interferon
bone marrow cells with the translocation [26]: sometimes loses the clone with the translocation
